In the supplement of paper PMC10307832:

Experiments:
Assay in all cases: relative viability (nuclei count vs DMSO), 5 days (fraction); higher = more cells survive
[1] = compound: COc1nc(N)nc2c1ncn2[C@@H]1O[C@H](CO)[C@@H](O)[C@@H]1O [Nelarabine] + Cc1nc(NC(=O)N2CCC[C@H]2C(N)=O)sc1-c1ccnc(C(C)(C)C(F)(F)F)c1 [Alpelisib] (partner 2 µM)
In short: (§1)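 Cells from lung cancer lines were seeded into 1536-well plates and, one day later, dosed by pin tool. Treatments were either a single drug or a fixed dose of an anchor drug with five library-drug doses (not always all listed) in √10 steps. After 5 days, nuclei were stained in a one-step fixation (final 0.05% Triton X-100, 1% formaldehyde, 1 ug/ml Hoechst) and counted on 4× images, and relative viability is the treated-to-vehicle nuclei ratio, as the median of duplicate plates.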

[2] = compound: C=CCn1c(=O)c2cnc(Nc3ccc(N4CCN(C)CC4)cc3)nc2n1-c1cccc(C(C)(C)O)n1 [Adavosertib] + Cc1cc(Nc2cc(N3CCN(C)CC3)nc(Sc3ccc(NC(=O)C4CC4)cc3)n2)n[nH]1 [Tozasertib] (partner 0.1 µM)
In short: as §1

[3] = compound: COc1nc(N)nc2c1ncn2[C@@H]1O[C@H](CO)[C@@H](O)[C@@H]1O [Nelarabine] + COc1cc2c(Oc3ccc(NC(=O)C4(C(=O)Nc5ccc(F)cc5)CC4)cc3F)ccnc2cc1OCCCN1CCOCC1 [Foretinib] (partner 0.25 µM)
In short: as §1

[4] = compound: COc1nc(N)nc2c1ncn2[C@@H]1O[C@H](CO)[C@@H](O)[C@@H]1O [Nelarabine] + N=C(N)NC(=N)NCCc1ccccc1 [Phenformin] (partner 250 µM)
In short: as §1

For EMC-BAC-2, the relative viability ([1]; first compound 0.01 µM) was 0.794, the relative viability ([1]; first compound 0.03162 µM) was 0.585 and the relative viability ([1]; first compound 0.1 µM) was 0.73. For the same cell line, the relative viability ([1]; first compound 0.3162 µM) was 0.799, the relative viability ([1]; first compound 1 µM) was 0.815 and the relative viability ([2]; first compound 0.01 µM) was 0.331. It also gave a relative viability ([2]; first compound 0.03162 µM) of 0.318, a relative viability ([2]; first compound 0.1 µM) of 0.261 and a relative viability ([2]; first compound 0.3162 µM) of 0.28. The relative viability ([3]; first compound 0.01 µM) was 1.06, the relative viability ([3]; first compound 0.03162 µM) was 1 and the relative viability ([3]; first compound 0.1 µM) was 0.913. It also gave a relative viability ([3]; first compound 0.3162 µM) of 0.975, a relative viability ([3]; first compound 1 µM) of 0.963 and a relative viability ([4]; first compound 0.01 µM) of 0.587. The relative viability ([4]; first compound 0.03162 µM) was 0.463, the relative viability ([4]; first compound 0.1 µM) was 0.493 and the relative viability ([4]; first compound 0.3162 µM) was 0.517. It also gave a relative viability ([4]; first compound 1 µM) of 0.539.
